According to patent US20170216399A1, “COMPOSITIONS, METHODS AND USES FOR PROTECTING WHITE BLOOD CELLS FROM SUPPRESSION OR DEATH” (LOS ANGELES BIOMEDICAL RESEARCH INSTITUTE AT HARBO-UCLA …, priority 2014, published 2017):
Marks after values point to notes of the source that are not given here. Ends that are not written are not given here.

Columns and labels:
cells = details: HN mutant compared with HN; cited from earlier work
[1] = mouse, in vivo
Description: (§1) Mice were injected with heparin (1300 IU/kg BW, ip) 15 min before sacrifice by sodium pentobarbital (200 mg/kg BW IP). Body weight (BW) was recorded at autopsy. Blood samples were collected from the right ventricle of each mouse immediately after death and used for complete blood count using an automated cell counter (VetScanHM2, ABAXIS, Union City, Calif.). Plasma was separated and stored at −20° C. for subsequent HNG, IGF-1 and IGFBP-1 measurements by specific and sensitive ELISA assays as previously described (Chin et al., Endocrinology. 2013; 154:3739-44; Hwang et al, Growth Horm IGF Res 2008; 18: 65-74).
(§2) Twenty-five young adult (12-week-old) male mice (C57BL/6J) were used for this experiment in which 5 mice were used as control and 20 mice of each were intravenously inoculated via the tail vein with 1×10^5 murine B16 melanoma cells. 20 tumor-bearing mice were randomly divided into 4 groups with 5 mice in each group received 1) no treatment; 2) HNG alone; 3) CP alone; and 4) a combination treatment with the doses and duration described above.

[2] = mouse, in vivo; remark: listed apart in the source
white blood cells [3] = type: in vivo
Description: (§3) Body weight (BW) was recorded at autopsy.
The effect of a potent HN analog HNG (HN-S14G) (5mg/KG/day, IP) with and without concomitant cyclophosphamide (CP, 200 mg IP) treatment was administered to 4 adult healthy mice in each group. Another four mice served as controls. Two days after treatment, the animals were killed and their peripheral blood cells were collected and the blood cell counts were assessed by a blood cell counter.

peripheral leucocytes = test: Peripheral leucocytes among treatment groups of healthy mice (Table 7); type: in vivo, mouse; details: mean ± SEM
Description: as §3

IGF-1 [4] = test: Plasma IGF-1 levels among groups in healthy mice (Table 6); type: in vivo, mouse; details: mean ± SEM
Description: as §3

[5] = tested on: red blood cell or platelet; test: Red blood cell and platelet counts in B16 tumor-bearing mice
Description: as §1, §2

germ cells = details: cited from earlier work
[6] = tested on: peripheral blood leucocytes
Description: as §1, §2

IGF-1 [7] = test: Plasma IGF-1 levels (ELISA) in B16 tumor-bearing mice; type: in vivo, mouse; details: treatment alone, tumor-bearing mice (FIG. 3B)
Description: as §1, §2

IGFBP-1 = test: Plasma IGFBP-1 levels among groups in healthy mice (Table 6); type: in vivo, mouse; details: mean ± SEM
Description: as §3

white blood cells [8] = type: in vivo; details: CP 200 mg IP single dose, melanoma-bearing mice (FIG. 2)
Description: The effect of a potent HN analog HNG (HN-S14G) with or without cyclophosphamide (CP) in a mouse melanoma with lung metastasis model was studied. Five mice were used as control (Con) and 40 mice were inoculated intravenously with B16 murine melanoma cells. Of these mice five received no further treatment (NT). A week later the remaining 35 mice (n=5 per group) were treated for additional 2 weeks with: • 1) HNG 0.05 mg/KG body weight (BW) daily IP injection for 2 weeks; • 2) HNG 0.5 mg mg/Kg BW daily IP injection for 2 weeks; • 3) HNG 5 mg/Kg BW daily IP injection for 2 weeks; • 4) a single CP (200 mg IP single dose) injection+HNG 0.05 mg/KG body weight (BW) daily IP injection for 2 weeks; • 5) a single CP (200 mg IP single dose) injection+HNG 0.5 mg mg/Kg BW daily IP injection for 2 weeks; • 6) a single CP (200 mg IP single dose) injection HNG 0.5 mg mg/Kg BW daily IP injection for 2 weeks; • 7) a single CP (200 mg IP single dose) injection+HNG 5 mg mg/Kg BW daily IP injection.
All mice were sacrificed three weeks after tumor inoculation and two weeks after CP/HNG treatment. Blood was obtained for the measurement of white blood cell (WBC) count by a Coulter Counter.

[9] = tested on: murine B16 melanoma cells; test: Lung melanoma metastases in B16 tumor-bearing mice; type: in vivo, mouse; details: treatment alone vs non-treated tumor-bearing mice
Description: In this study the tumor loading dose was 1×10^5 B16 cells per mouse to examine the effects of HNG on peripheral blood leucocytes, plasma IGF-1 and IGFBP-1 levels while confirming its additive or synergistic effect on CP-induced suppression of lung melanoma metastases. Twenty-five young adult (12-week-old) male mice (C57BL/6J) were used for this experiment in which 5 mice were used as control and 20 mice of each were intravenously inoculated via the tail vein with 1×10^5 murine B16 melanoma cells. 20 tumor-bearing mice were randomly divided into 4 groups with 5 mice in each group received 1) no treatment; 2) HNG alone; 3) CP alone; and 4) a combination treatment with the doses and duration described above.

[10] = during in vivo treatment with CP (Drumond, et al., 2011)

Compound: HN-C8P: MAPRGFSPLLLLTSEIDLPVKRRA (SEQ ID NO: 25); Cys8 to Pro
- Cytoprotective Action (cells): Not effective, blocks

Compound: HN-F6A: MAPRGASCLLLLTSEIDLPVKRRA (SEQ ID NO: 22); Phe6 to Ala
- Cytoprotective Action (cells): Similar/more effective

Compound: HN-C8A: Cys8 to Ala; MAPRGFSALLLLTSEIDLPVKRRA (SEQ ID NO: 42)
- Cytoprotective Action (cells): Not effective, prevents

Compound: MAPRGFSCLLLLTGEIDLPVKRRA [HNG]
- plasma HNG levels [1]: increased
- HNG (ng/ml) [2]: 80.8 ± 7.8^b ng/ml

Compound: HN: MAPRGFSCLLLLTSEIDLPVKRRA (SEQ ID NO: 1); 24-amino acid mitochondrial derived peptide
- total number of white blood cells (WBC) (white blood cells [3]; HNG 5mg/KG/day IP alone, adult healthy mice, two days after treatment, vs controls (FIG. 1A)): increased slightly but significantly

Compound: HN-S7A: MAPRGFACLLLLTSEIDLPVKRRA (SEQ ID NO: 24); Ser7 to Ala
- Cytoprotective Action (cells): Not effective, prevents

Compound: O=P1(N(CCCl)CCCl)NCCCO1 (stereo not shown) [CP, cyclophosphamide monohydrate]
- Granulocytes (10^6/ml) (peripheral leucocytes): 0.2 ± 0.02^b 10^6/ml
- Lymphocytes (10^6/ml) (peripheral leucocytes): 0.07 ± 0.01^b 10^6/ml
- Monocytes (10^6/ml) (peripheral leucocytes): 0.01 ± 0.01^b 10^6/ml
- Total WBC (10^6/ml) (peripheral leucocytes): 0.3 ± 0.02^b 10^6/ml
- IGF-1 (ng/ml) (IGF-1 [4]): 182.4 ± 10.5^c ng/ml
- platelet counts [5]: no significant decreases
- red blood cell counts [5]: no significant decreases
- differentiated germ cells of mice (germ cells; [10]): eliminated
- undifferentiated germ cells remained (germ cells; [10]): about half
- germ cells regenerated from undifferentiated stem cells (germ cells; once CP treatment was stopped (Drumond, et al., 2011)): about 64%
- number of white blood cells ([6]; CP alone vs non-treated tumor-bearing mice (FIG. 4A)): significantly suppressed
- granulocytes ([6]; CP alone vs non-treated tumor-bearing mice (FIG. 4B)): significantly suppressed
- monocytes ([6]; CP alone vs non-treated tumor-bearing mice (FIG. 4C)): significantly suppressed
- lymphocytes ([6]; CP alone vs non-treated tumor-bearing mice (FIG. 4D)): significantly suppressed
- plasma IGF-1 levels (IGF-1 [7]): significantly suppressed
- granulocyte count in the blood, of baseline value (white blood cells [3]; CP 200 mg IP alone, two days after CP treatment (FIG. 1B)): about 25%
- WBC, fraction of the baseline counts (white blood cells [3]; CP 200 mg IP alone, two days after treatment (FIG. 1A)): about ⅕
- IGFBP-1 (ng/ml) (IGFBP-1): 7.4 ± 1.3^b ng/ml
- WBC count, fraction of control values (white blood cells [8]): about ⅓
- number of metastatic tumors in the lungs [9]: significantly decreased

Compound: HN-L12A: HN mutant, Leu12 to Ala (MAPRGFSCLLLATSEIDLPVKRRA; Humanin; UniProt Q8IVG9 1-24, looked up, variant L12A)
- Cytoprotective Action (cells): HN antagonist, forms
